According to PubChem BioAssay AID248 (DTP/NCI, 2004):
Where “and” joins values, the source holds several entries; their conditions need not be identical. Equal values may be shown once. Inconclusive results and toxic doses are left out. No stated cut-off is given here; in the data, active means T/C of 150% or more; inactive means T/C below 125%.

Test system: L1210 leukemia ip in BDF1 mice, survival T/C
Experiment: NCI In Vivo Anticancer Drug Screen. Data for tumor model L1210 Leukemia (intraperitoneal) in B6D2F1 (BDF1) mice
Conditions: endpoint: mean survival time, higher = longer survival
Outline: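 Tumor was transplanted into mice, which were then dosed with test compound or vehicle alone. Survival was recorded for each group, and the treated figure was expressed relative to the control figure.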

[1] = dose: 100.0 mg/kg/injection, schedule: Q04DX003 (ip), vehicle: saline with Tween-80
[2] = dose: 25.0 mg/kg/injection, schedule: Q04DX002 (ip), vehicle: saline with Tween-80
[3] = dose: 100.0 mg/kg/injection, schedule: Q04DX003 (ip), vehicle: saline
[4] = dose: 200.0 mg/kg/injection, schedule: Q04DX003 (ip), vehicle: saline
[5] = dose: 100.0 mg/kg/injection, schedule: Q01DX009 (ip), vehicle: saline with Tween-80
[6] = dose: 200.0 mg/kg/injection, schedule: Q01DX009 (ip), vehicle: saline with Tween-80
[7] = dose: 400.0 mg/kg/injection, schedule: Q01DX009 (ip), vehicle: saline with Tween-80
[8] = dose: 100.0 mg/kg/injection, schedule: Q04DX003 (ip), vehicle: Klucel (hydroxypropylcellulose) (HPC)

Measured: T/C

OC1C#CCCCCC(O)C#CCCCC1 (configuration not stated)
inactive: dose: 18.75 mg/kg/injection, schedule: Q01DX009 (ip), vehicle: saline 97 % of control | dose: 37.5 mg/kg/injection, schedule: Q01DX009 (ip), vehicle: saline 95 % of control | dose: 37.5 mg/kg/injection, schedule: Q04DX003 (ip), vehicle: acetone 100 % of control | dose: 75.0 mg/kg/injection, schedule: Q01DX009 (ip), vehicle: saline 97 % of control | dose: 75.0 mg/kg/injection, schedule: Q04DX003 (ip), vehicle: acetone 97 % of control | dose: 150.0 mg/kg/injection, schedule: Q04DX003 (ip), vehicle: acetone 92 % of control

CCN(CCO)c1ccc(N=Nc2ccc([N+](=O)[O-])cc2)cc1
inactive: dose: 100.0 mg/kg/injection, schedule: Q01DX001 (ip), vehicle: Klucel (hydroxypropylcellulose) (HPC) 105 % of control | dose: 200.0 mg/kg/injection, schedule: Q01DX001 (ip), vehicle: Klucel (hydroxypropylcellulose) (HPC) 96 % of control | dose: 400.0 mg/kg/injection, schedule: Q01DX001 (ip), vehicle: Klucel (hydroxypropylcellulose) (HPC) 100 % of control

CC(C)(C)CCSC(=N)N
inactive: dose: 25.0 mg/kg/injection, schedule: Q04DX003 (ip), vehicle: saline with Tween-80 98 % of control | dose: 50.0 mg/kg/injection, schedule: Q04DX003 (ip), vehicle: saline with Tween-80 102 % of control | [1] 96 % of control

SCC1SCCCS1
inactive: dose: 12.5 mg/kg/injection, schedule: Q04DX002 (ip), vehicle: saline with Tween-80 97 % of control | [2] 113 % of control | dose: 50.0 mg/kg/injection, schedule: Q04DX002 (ip), vehicle: saline with Tween-80 97 % of control

O=C(Nc1cccc(Cl)c1)Nc1cc(C(F)(F)F)ccc1Cl
inactive: dose: 50.0 mg/kg/injection, schedule: Q01DX001 (ip), vehicle: carboxymethylcellulose (CMC) 96 % of control | dose: 100.0 mg/kg/injection, schedule: Q01DX001 (ip), vehicle: carboxymethylcellulose (CMC) 100 % of control | dose: 200.0 mg/kg/injection, schedule: Q01DX001 (ip), vehicle: carboxymethylcellulose (CMC) 91 % of control | dose: 400.0 mg/kg/injection, schedule: Q01DX001 (ip), vehicle: carboxymethylcellulose (CMC) 100 % of control

CC(=O)[C@H]1CC[C@H]2[C@@H]3CCC4=CC(=O)[C@H](C)C[C@]4(C)[C@H]3C(=O)C[C@]12C
inactive: dose: 200.0 mg/kg/injection, schedule: Q01DX001 (sc), vehicle: steriod suspending solution 98 % of control | dose: 200.0 mg/kg/injection, schedule: Q01DX009 (sc), vehicle: steriod suspending solution 100 % of control | dose: 400.0 mg/kg/injection, schedule: Q01DX001 (sc), vehicle: steriod suspending solution 104 % of control | dose: 400.0 mg/kg/injection, schedule: Q01DX009 (sc), vehicle: steriod suspending solution 100 % of control | dose: 600.0 mg/kg/injection, schedule: Q01DX001 (sc), vehicle: steriod suspending solution 96 % of control | dose: 600.0 mg/kg/injection, schedule: Q01DX009 (sc), vehicle: steriod suspending solution 92 % of control | dose: 800.0 mg/kg/injection, schedule: Q01DX001 (sc), vehicle: steriod suspending solution 96 % of control | dose: 800.0 mg/kg/injection, schedule: Q01DX009 (sc), vehicle: steriod suspending solution 92 % of control

CCCCNC(=NC)c1ccc(NC(=O)c2ccc(C(=O)Nc3ccc(C(=NC)NCCCC)cc3)cc2)cc1
inactive: dose: 4.4 mg/kg/injection, schedule: Q01DX Z (ip), vehicle: saline 112 % of control | dose: 6.6 mg/kg/injection, schedule: Q01DX Z (ip), vehicle: saline 120 % of control

Nc1ncnc(N)c1NC(=O)c1cccnc1
inactive: [3] 92 % of control | [4] 96 % of control | dose: 400.0 mg/kg/injection, schedule: Q04DX003 (ip), vehicle: saline 100 % of control

C(COCCOCC1CO1)OCCOCC1CO1 (configuration not stated)
inactive: dose: 62.0 mg/kg/injection, schedule: Q01DX Z (ip), vehicle: saline 110 % of control | dose: 125.0 mg/kg/injection, schedule: Q01DX Z (ip), vehicle: saline 117 % of control | dose: 250.0 mg/kg/injection, schedule: Q01DX Z (ip), vehicle: saline 116 % of control | dose: 500.0 mg/kg/injection, schedule: Q01DX Z (ip), vehicle: saline 108 % of control

CN(C)c1ccc(/C=C\c2cc(/C=C/c3ccc(N(C)C)cc3)c([N+](=O)[O-])cc2[N+](=O)[O-])cc1
inactive: dose: 75.0 mg/kg/injection, schedule: Q01DX001 (ip), vehicle: saline 98 % of control and 89 % of control | dose: 150.0 mg/kg/injection, schedule: Q01DX001 (ip), vehicle: saline 86 % of control | dose: 300.0 mg/kg/injection, schedule: Q01DX001 (ip), vehicle: saline 95 % of control and 101 % of control

Cn1nnc2nnc(-c3ccccc3)n21
inactive: [5] 100 % of control | [1] 95 % of control | [6] 94 % of control | dose: 200.0 mg/kg/injection, schedule: Q04DX003 (ip), vehicle: saline with Tween-80 106 % of control | [7] 108 % of control | dose: 400.0 mg/kg/injection, schedule: Q04DX003 (ip), vehicle: saline with Tween-80 98 % of control

CN1C(=O)CC(c2ccc(N3C(=O)C=CC3=O)cc2)C1=O (configuration not stated)
inactive: [2] 102 % of control

O=C(O)C1C2C=CC(C2)C1C(=O)O (configuration not stated)
inactive: [5] 97 % of control | [6] 96 % of control | [7] 98 % of control

Nc1ccc(O)c2c1C(=O)c1ccccc1C2=O
inactive: dose: 100.0 mg/kg/injection, schedule: Q01DX009 (ip), vehicle: Klucel (hydroxypropylcellulose) (HPC) 103 % of control | dose: 100.0 mg/kg/injection, schedule: Q04DX002 (ip), vehicle: Klucel (hydroxypropylcellulose) (HPC) 104 % of control | dose: 200.0 mg/kg/injection, schedule: Q01DX009 (ip), vehicle: Klucel (hydroxypropylcellulose) (HPC) 92 % of control | dose: 200.0 mg/kg/injection, schedule: Q04DX002 (ip), vehicle: Klucel (hydroxypropylcellulose) (HPC) 115 % of control | dose: 400.0 mg/kg/injection, schedule: Q01DX009 (ip), vehicle: Klucel (hydroxypropylcellulose) (HPC) 96 % of control | dose: 400.0 mg/kg/injection, schedule: Q04DX002 (ip), vehicle: Klucel (hydroxypropylcellulose) (HPC) 100 % of control

O=C(O)C#Cc1ccccc1
inactive: dose: 25.0 mg/kg/injection, schedule: Q04DX003 (ip), vehicle: Klucel (hydroxypropylcellulose) (HPC) 107 % of control | dose: 50.0 mg/kg/injection, schedule: Q04DX003 (ip), vehicle: Klucel (hydroxypropylcellulose) (HPC) 98 % of control | dose: 100.0 mg/kg/injection, schedule: Q01DX001 (ip), vehicle: saline 100 % of control | [8] 96 % of control

CC(=O)C(C(C)=O)c1cc(NS(=O)(=O)N(C)C)ccc1NS(=O)(=O)N(C)C
inactive: dose: 75.0 mg/kg/injection, schedule: Q04DX003 (ip), vehicle: Klucel (hydroxypropylcellulose) (HPC) 89 % of control | dose: 150.0 mg/kg/injection, schedule: Q04DX003 (ip), vehicle: Klucel (hydroxypropylcellulose) (HPC) 108 % of control | dose: 300.0 mg/kg/injection, schedule: Q04DX003 (ip), vehicle: Klucel (hydroxypropylcellulose) (HPC) 96 % of control

CC(C)NC(=O)C1CC2c3cccc4c3c(cn4CN(C)C)CC2N(C)C1 (configuration not stated)
inactive: dose: 2.5 mg/kg/injection, schedule: Q04DX003 (ip), vehicle: saline 101 % of control | dose: 5.0 mg/kg/injection, schedule: Q04DX003 (ip), vehicle: saline 101 % of control | dose: 10.0 mg/kg/injection, schedule: Q04DX003 (ip), vehicle: saline 100 % of control | dose: 12.5 mg/kg/injection, schedule: Q04DX002 (ip), vehicle: saline 113 % of control | dose: 20.0 mg/kg/injection, schedule: Q04DX003 (ip), vehicle: saline 101 % of control | dose: 25.0 mg/kg/injection, schedule: Q04DX002 (ip), vehicle: saline 108 % of control

COC(=O)C(C)(N)Cc1ccc(O)cc1 (configuration not stated)
inactive: dose: 50.0 mg/kg/injection, schedule: Q01DX009 (ip), vehicle: saline 102 % of control | dose: 100.0 mg/kg/injection, schedule: Q01DX009 (ip), vehicle: saline 97 % of control | [3] 96 % of control | dose: 200.0 mg/kg/injection, schedule: Q01DX009 (ip), vehicle: saline 105 % of control | [4] 93 % of control

COC(OC)c1nc(N)nc(N)c1-c1ccccc1
inactive: dose: 100.0 mg/kg/injection, schedule: Q01DX008 (ip), vehicle: Klucel (hydroxypropylcellulose) (HPC) 108 % of control | [8] 103 % of control | dose: 200.0 mg/kg/injection, schedule: Q04DX003 (ip), vehicle: Klucel (hydroxypropylcellulose) (HPC) 95 % of control | dose: 400.0 mg/kg/injection, schedule: Q04DX003 (ip), vehicle: Klucel (hydroxypropylcellulose) (HPC) 94 % of control
